The source of these data is US8298543B2, “Identification and application of antibiotic synergy” (priority 2005, dated 2012).

Data set [1] relates to S. aureus engineered with murB antisense. Type of data set: cell-based, Staphylococcus aureus.
Data set [2] has as its system B. anthracis murB-2 antisense strain.

As for `CO[C@@]1(NC(=O)Cc2cccs2)C(=O)N2C(C(=O)O)=C(COC(N)=O)CS[C@@H]21` [cefoxitin], the “change of potency / sensitivity in presence of inducer” value in data set [1] was “increase in potency”.
Take `Cc1onc(-c2c(Cl)cccc2Cl)c1C(=O)N[C@@H]1C(=O)N2[C@@H]1SC(C)(C)[C@@H]2C(=O)O` [dicloxacillin]: the “change of potency / sensitivity in presence of inducer” value in data set [1] is “increase in potency”.
As for `CO/N=C(\C(=O)N[C@@H]1C(=O)N2C(C(=O)O)=C(COC(C)=O)CS[C@H]12)c1csc(N)n1` [cefotaxime], the “IC50 shift (ratio of EC50 with and without xylose)” value in data set [2] came to 343.
